Assay results taken from US20250236608A1, “EGFR INHIBITORS” (Blueprint Medicines Corporation, priority 2022, published 2025).

Assays:
EGFR mutant NSCLC = conditions: cited from earlier work; for objective response rate (ORR): EGFR M+ NSCLC patients treated first line (1 L)
EGFR L858R = EGFR L858R (Homo sapiens (Human), UniProt P00533, L858R); assay: Biochemical EGFR inhibition assay, EGFR L858R; conditions: Caliper mobility shift; 1.0 mM ATP or ATP Km; read-out: Enz EGFR_L858R IC50
EGFR (d746-750) = EGFR (d746-750) (Homo sapiens (Human), UniProt P00533, DEL746-750); assay: Biochemical EGFR inhibition assay, EGFR (d746-750); conditions: Caliper mobility shift; 1.0 mM ATP or ATP Km; read-out: Enz EGFR_Exon19-del746-750 IC50
[1] = target: pEGFR (Tyr1068) in PC-9 cells (Ex19Del) (Homo sapiens (Human), UniProt P00533, DEL746-750); assay: PC-9 pEGFR AlphaLISA assay; format: cell-based; conditions: 4 hours incubation, p-EGFR (Tyr1068) AlphaLISA, read-out: Ext pEGFR_PC-9 Ex19Del IC50
In short: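 First, cells settled overnight in 10% FBS medium. Second, a 10-point, 4-fold series of test agents was applied for 4 h at 37° C. Third, lysates were probed with AlphaLISA acceptor and donor beads, incubated overnight in the dark. Last, IC50 was taken from the dose-response.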

pEGFR (Tyr1068) in PC-9 cells (Ex19Del), sequence (P00533 other isoform, or with tags, fused parts or gaps del 746-750): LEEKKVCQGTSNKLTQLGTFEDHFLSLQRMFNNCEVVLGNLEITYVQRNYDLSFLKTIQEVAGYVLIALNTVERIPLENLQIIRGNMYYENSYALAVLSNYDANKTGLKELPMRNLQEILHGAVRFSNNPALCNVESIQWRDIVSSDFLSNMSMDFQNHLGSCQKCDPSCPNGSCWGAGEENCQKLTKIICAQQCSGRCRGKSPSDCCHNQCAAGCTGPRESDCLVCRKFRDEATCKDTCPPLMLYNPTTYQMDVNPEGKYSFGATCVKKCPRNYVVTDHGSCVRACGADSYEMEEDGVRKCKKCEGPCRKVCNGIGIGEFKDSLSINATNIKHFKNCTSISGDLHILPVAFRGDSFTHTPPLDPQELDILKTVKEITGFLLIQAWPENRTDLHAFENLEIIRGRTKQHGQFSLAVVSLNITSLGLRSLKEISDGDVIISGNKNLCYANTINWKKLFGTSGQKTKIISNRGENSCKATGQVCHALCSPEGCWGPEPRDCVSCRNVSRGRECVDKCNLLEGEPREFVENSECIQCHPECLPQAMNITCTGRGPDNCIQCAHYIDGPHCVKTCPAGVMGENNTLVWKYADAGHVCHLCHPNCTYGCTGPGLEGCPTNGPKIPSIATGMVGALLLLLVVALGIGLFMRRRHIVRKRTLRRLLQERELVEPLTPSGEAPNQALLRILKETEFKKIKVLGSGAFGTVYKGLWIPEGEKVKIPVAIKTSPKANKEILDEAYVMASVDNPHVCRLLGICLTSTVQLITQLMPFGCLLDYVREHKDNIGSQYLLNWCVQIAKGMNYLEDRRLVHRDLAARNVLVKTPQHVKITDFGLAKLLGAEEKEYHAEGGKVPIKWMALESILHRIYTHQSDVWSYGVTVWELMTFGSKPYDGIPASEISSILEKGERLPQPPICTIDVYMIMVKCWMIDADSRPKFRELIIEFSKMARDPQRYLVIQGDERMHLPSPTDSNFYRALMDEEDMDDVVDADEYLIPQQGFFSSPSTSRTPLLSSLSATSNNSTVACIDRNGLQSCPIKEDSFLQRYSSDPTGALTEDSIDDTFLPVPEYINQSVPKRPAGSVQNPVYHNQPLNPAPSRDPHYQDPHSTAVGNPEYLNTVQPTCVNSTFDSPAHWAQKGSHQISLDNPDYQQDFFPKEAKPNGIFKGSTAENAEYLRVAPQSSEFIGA
EGFR L858R, sequence (P00533 25-1210 L858R): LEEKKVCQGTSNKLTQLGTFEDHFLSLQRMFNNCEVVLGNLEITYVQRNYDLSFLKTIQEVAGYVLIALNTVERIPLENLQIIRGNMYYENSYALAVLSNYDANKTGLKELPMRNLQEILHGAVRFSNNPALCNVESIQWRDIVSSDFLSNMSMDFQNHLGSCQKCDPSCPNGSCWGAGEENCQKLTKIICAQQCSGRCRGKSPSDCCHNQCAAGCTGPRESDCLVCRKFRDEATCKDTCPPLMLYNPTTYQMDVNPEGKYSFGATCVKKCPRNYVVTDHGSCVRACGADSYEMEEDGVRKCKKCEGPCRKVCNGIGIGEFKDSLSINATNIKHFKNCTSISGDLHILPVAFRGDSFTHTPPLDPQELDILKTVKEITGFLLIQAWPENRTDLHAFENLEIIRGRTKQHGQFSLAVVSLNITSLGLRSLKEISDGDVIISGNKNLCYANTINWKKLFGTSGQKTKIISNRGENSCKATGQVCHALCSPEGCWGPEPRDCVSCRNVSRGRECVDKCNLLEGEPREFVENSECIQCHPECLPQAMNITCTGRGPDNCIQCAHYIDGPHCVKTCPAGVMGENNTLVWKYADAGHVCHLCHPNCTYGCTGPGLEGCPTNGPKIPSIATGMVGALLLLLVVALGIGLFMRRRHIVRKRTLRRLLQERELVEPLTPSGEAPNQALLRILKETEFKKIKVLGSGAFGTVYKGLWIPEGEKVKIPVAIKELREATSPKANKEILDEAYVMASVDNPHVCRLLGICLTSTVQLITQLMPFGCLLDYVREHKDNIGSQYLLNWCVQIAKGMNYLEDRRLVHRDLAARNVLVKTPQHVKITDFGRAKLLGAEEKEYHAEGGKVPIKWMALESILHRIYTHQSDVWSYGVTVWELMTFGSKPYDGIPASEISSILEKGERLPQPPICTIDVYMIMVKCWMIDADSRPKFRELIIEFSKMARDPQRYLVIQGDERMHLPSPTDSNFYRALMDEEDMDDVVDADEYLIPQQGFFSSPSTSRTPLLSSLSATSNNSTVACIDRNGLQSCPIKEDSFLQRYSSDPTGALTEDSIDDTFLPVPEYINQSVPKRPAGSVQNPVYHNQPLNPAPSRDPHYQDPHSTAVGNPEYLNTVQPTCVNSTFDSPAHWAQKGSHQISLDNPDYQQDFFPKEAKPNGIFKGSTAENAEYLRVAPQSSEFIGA
EGFR (d746-750), sequence (P00533 other isoform, or with tags, fused parts or gaps del 1-694/del 746-750 limits assumed): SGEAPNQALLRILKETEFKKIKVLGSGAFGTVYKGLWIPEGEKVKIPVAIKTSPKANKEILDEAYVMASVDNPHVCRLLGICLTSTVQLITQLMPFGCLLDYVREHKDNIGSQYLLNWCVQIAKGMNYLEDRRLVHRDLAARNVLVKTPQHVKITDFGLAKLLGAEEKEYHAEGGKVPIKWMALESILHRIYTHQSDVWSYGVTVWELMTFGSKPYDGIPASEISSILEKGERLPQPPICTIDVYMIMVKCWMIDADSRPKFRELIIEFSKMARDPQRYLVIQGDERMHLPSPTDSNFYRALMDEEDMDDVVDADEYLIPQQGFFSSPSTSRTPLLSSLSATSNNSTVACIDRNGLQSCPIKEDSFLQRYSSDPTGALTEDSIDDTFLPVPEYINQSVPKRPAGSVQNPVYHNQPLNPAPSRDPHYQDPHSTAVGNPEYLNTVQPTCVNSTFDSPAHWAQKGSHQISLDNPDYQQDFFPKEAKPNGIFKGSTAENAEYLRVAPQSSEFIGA

SMILES	objective response rate (ORR) (EGFR mutant NSCLC)	progression-free survival (PFS) (EGFR mutant NSCLC; first line, NSCLC harboring del 19 and L858R mutations) [mo]	IC50 (EGFR L858R) [nM]	IC50 (EGFR (d746-750)) [nM]	IC50 [1] [nM]
C=CC(=O)Nc1cc(Nc2nccc(-c3cn(C)c4ccccc34)n2)c(OC)cc1N(C)CCN(C)C [osimertinib]	60-85%	18.9			
C#Cc1cccc(Nc2ncnc3cc(OCCOC)c(OCCOC)cc23)c1 [erlotinib]	60-85%				
COCC1(C(=O)Nc2cc3c(-c4cn(C)nc4-c4ccccc4)ncnc3cc2OC)CCC1 [Example 214, N-(7-methoxy-4-(1-methyl-3-phenyl-1H-pyrazol-4-yl)quinazolin-6-yl)-1-(methoxymethyl)cyclobutane-1-carboxamide]			1.6	0.9	1.2
COc1cc2ncnc(-c3cn(C)nc3-c3ccccc3)c2cc1NC(=O)c1cn(C(F)(F)F)nc1C [Example 235, N-(7-methoxy-4-(1-methyl-3-phenyl-1H-pyrazol-4-yl)quinazolin-6-yl)-3-methyl-1-(trifluoromethyl)-1H-pyrazole-4-carboxamide]			1.6	0.9	1.5
COc1cc2ncnc(-c3cn(C)nc3-c3ccccc3)c2cc1OC(=O)N1CCN(C)CC1(C)C [Example 78, 7-methoxy-4-(1-methyl-3-phenyl-1H-pyrazol-4-yl)quinazolin-6-yl 2,2,4-trimethylpiperazine-1-carboxylate]			7	2.4	8.1
CN1C[C@H]2C[C@@]2(C(=O)Nc2nc3c(-c4cn(C)nc4-c4ccccc4)ncnc3cc2OC2CC2)C1 [Example 460, (1S,5S)—N-[7-cyclopropoxy-4-(1-methyl-3-phenyl-1H-pyrazol-4-yl)pyrido[3,2-d]pyrimidin-6-yl]-3-methyl-3-azabicyclo[3.1.0]hexane-1-carboxamide]			5.7	1.5	3.2
Cn1cc(-c2ccc3c(-c4c[nH]nc4-c4ccccc4F)ncnc3c2)cn1 [Example 443, 4-[3-(2-fluorophenyl)-1H-pyrazol-4-yl]-7-(1-methyl-1H-pyrazol-4-yl)quinazoline]			0.8	0.4	0.3
COc1cc2ncnc(-c3cn(C)nc3-c3ccccc3)c2nc1O[C@H](C)c1nnc(C)s1 (single isomer, unassigned) [Example 52, (R)-2-(1-((7-methoxy-4-(1-methyl-3-phenyl-1H-pyrazol-4-yl)pyrido[3,2-d]pyrimidin-6-yl)oxy)ethyl)-5-methyl-1,3,4-thiadiazole or (S)-2-(1-((7-methoxy-4-(1-methyl-3-phenyl-1H-pyrazol-4-yl)pyrido[3,2-d]pyrimidin-6-yl)oxy)ethyl)-5-methyl-1,3,4-thiadiazole]			12.3	2.7	6.3
